Source: PMC11820700, “Antioxidant, Enzyme-Inhibitory and Antimicrobial Activity of Underutilized Wheat and Maize Crop Residues” (Plants, 2025)
In brackets after ≈: the same amount, converted by molar mass. Several values for one entry are separate records, joined by “and”; a condition that tells them apart may be missing. Equal entries are not always repeated. Where two headings read alike, the source gives them in different places. Marks after values point to notes of the source that are not given here.

Assays:
α-amylase = settings: cited from earlier work; for α-amylase IC50: mg/mL figure given in parentheses beside mM; for α-amylase IC50 / IC50: ref Jeong et al. (2012) [29]
α-glucosidase = settings: cited from earlier work
[1] = TRC (total reducing capacity) ferric reducing power assay; settings: L-ascorbic acid equivalents
[2] = set-up: method as in Glišić et al. (2024) [4]; settings: ref Glišić et al. (2024) [4]; cited from earlier work
[3] = set-up: method as in Glišić et al. (2024) [4]; settings: ref Glišić et al. (2024) [4]; cited from earlier work; remark: listed apart in the source
[4] = cited from earlier work; for DPPH radical inhibition: concentrations 50–1000 µg/mL, ref Jeong et al. (2010) [24]
[5] = cited from earlier work
[6] = set-up: method as in Glišić et al. (2024) [4]; settings: ref Glišić et al. (2024) [4]; cited from earlier work; remark: listed apart in the source
[7] = system: Staphylococcus aureus ATCC 6538; test: Broth microdilution MIC; format: cell-based; settings: extracts 62.5–1000, compounds 31.25–500 µg/mL tested; for MIC: ATCC6538, 24 h, read-out: Minimal Inhibitory Concentrations MICs
[8] = ABTS free radical scavenging assay
[9] = molecular target: butyrylcholinesterase (BChE) from equine serum (Equus caballus, UniProt P81908); test: biochemical; format: biochemical
[10] = DPPH free radical scavenging assay
[11] = system: Salmonella abony NCTC 6017; test: Broth microdilution MIC; format: cell-based; settings: for MIC: Salmonella enterica, NCTC6017, Salmonella abony, 24 h, read-out: Minimal Inhibitory Concentrations MICs
[12] = molecular target: acetylcholinesterase (AChE) from Electrophorus electricus (Electrophorus electricus, UniProt O42275); test: biochemical
[13] = system: methicillin-resistant Staphylococcus aureus (MRSA); settings: ref Alves et al. (2013) [45]; cited from earlier work
[14] = system: clinical isolates of both Gram-positive and Gram-negative bacteria; set-up: method as in Alves et al. (2013) [45]; settings: ref Alves et al. (2013) [45]; cited from earlier work
[15] = system: Candida albicans ATCC 10231; test: Broth microdilution MIC; format: cell-based; settings: for Minimal Inhibitory Concentrations MICs: 48 h; for MIC: ATCC10231, 48 h, read-out: Minimal Inhibitory Concentrations MICs
[16] = system: Klebsiella pneumoniae NCIMB 9111; test: Broth microdilution MIC; format: cell-based; settings: for MIC: NCIMB9111, 24 h, read-out: Minimal Inhibitory Concentrations MICs
[17] = system: Escherichia coli ATCC 8739; test: Broth microdilution MIC; format: cell-based; settings: for MIC: ATCC8739, 24 h, read-out: Minimal Inhibitory Concentrations MICs
[18] = molecular target: α-glucosidase from bakers’ yeast (Saccharomyces cerevisiae, UniProt P53341); format: biochemical
[19] = system: Bacillus subtilis ATCC 6633; test: Broth microdilution MIC; format: cell-based; settings: for Minimal Inhibitory Concentrations MICs: 24 h; for MIC: ATCC6633, 24 h, read-out: Minimal Inhibitory Concentrations MICs
[20] = FRAP ferric reducing power assay
[21] = system: Pseudomonas aeruginosa ATCC 9027; test: Broth microdilution MIC; format: cell-based; settings: for MIC: ATCC9027, 24 h, read-out: Minimal Inhibitory Concentrations MICs
[22] = molecular target: T1, α-amylase from porcine pancreas (Sus scrofa, UniProt P00690); test: biochemical; settings: for IC50: read-out: α-amilase IC50 (converted)
T1 construct: purchased Merck KGaA (Darmstadt, Germany) type VI-B (catalogue number not given); host or cells: porcine pancreas
T1 sequence (P00690 16-511): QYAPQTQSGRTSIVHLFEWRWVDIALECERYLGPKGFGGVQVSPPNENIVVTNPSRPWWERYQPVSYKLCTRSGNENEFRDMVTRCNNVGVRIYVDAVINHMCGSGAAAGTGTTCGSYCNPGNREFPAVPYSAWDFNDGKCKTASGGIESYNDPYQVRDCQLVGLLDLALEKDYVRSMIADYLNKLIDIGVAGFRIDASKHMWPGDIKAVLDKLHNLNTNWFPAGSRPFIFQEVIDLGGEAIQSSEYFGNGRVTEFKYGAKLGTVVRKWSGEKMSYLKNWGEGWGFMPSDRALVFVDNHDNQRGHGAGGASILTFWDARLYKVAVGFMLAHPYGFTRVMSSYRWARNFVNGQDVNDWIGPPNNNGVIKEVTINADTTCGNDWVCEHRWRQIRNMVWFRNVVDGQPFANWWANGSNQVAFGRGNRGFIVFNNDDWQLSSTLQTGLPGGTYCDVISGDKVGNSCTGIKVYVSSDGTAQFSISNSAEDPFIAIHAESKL

[23] = system: Enterococcus faecalis ATCC 29212; test: Broth microdilution MIC; format: cell-based; settings: for Minimal Inhibitory Concentrations MICs: 24 h; for MIC: ATCC29212, 24 h, read-out: Minimal Inhibitory Concentrations MICs
tyrosinase from mushroom = format: biochemical
tyrosinase = settings: cited from earlier work
[24] = molecular target: acetylcholinesterase (AChE); settings: cited from earlier work
[25] = system: three tested Gram-positive bacteria; set-up: method as in Lou et al. (2012) [44]; settings: ref Lou et al. (2012) [44]; cited from earlier work
Gram-negative bacteria = system: Gram-negative bacteria; set-up: method as in Lou et al. (2012) [44]; settings: ref Lou et al. (2012) [44]; cited from earlier work
[26] = mg/mL figure given in parentheses beside mM, ref Jeong et al. (2012) [29]
[27] = isolated from medicinal rice (Oryza sativa L.), ref Mohanlal et al. (2011) [7]

Sequence of acetylcholinesterase (AChE) from Electrophorus electricus (O42275 24-633 limits assumed): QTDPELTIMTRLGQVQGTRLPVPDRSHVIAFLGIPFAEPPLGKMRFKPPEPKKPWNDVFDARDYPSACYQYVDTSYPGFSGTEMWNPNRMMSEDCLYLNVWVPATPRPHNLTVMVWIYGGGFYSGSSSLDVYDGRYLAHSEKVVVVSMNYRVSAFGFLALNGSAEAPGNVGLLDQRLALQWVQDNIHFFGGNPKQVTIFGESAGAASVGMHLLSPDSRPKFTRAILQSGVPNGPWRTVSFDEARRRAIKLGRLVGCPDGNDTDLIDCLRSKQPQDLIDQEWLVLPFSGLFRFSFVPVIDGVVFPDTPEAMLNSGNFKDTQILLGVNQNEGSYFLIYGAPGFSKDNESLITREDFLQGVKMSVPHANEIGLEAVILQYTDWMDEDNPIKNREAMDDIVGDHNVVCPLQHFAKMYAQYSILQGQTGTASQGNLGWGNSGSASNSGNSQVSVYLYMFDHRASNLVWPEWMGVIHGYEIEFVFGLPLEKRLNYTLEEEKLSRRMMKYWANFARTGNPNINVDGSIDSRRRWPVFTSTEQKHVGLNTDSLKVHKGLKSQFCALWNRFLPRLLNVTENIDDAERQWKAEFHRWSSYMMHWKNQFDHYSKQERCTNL
Sequence of butyrylcholinesterase (BChE) from equine serum (P81908 whole entry, looked up): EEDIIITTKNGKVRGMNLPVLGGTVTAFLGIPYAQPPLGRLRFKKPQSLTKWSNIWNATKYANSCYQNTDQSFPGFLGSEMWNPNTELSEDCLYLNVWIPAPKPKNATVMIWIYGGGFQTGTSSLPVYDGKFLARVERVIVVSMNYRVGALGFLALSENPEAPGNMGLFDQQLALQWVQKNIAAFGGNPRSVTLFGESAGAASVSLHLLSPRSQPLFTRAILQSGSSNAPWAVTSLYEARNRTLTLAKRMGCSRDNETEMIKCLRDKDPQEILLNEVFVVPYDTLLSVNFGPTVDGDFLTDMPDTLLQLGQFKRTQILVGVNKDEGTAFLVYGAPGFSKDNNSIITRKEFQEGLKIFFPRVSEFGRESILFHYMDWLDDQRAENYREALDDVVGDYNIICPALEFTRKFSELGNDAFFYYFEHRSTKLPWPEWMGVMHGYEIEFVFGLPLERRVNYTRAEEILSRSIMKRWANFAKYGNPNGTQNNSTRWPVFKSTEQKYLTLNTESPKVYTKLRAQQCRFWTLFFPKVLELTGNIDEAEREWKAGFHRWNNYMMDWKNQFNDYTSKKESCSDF
Sequence of α-glucosidase from bakers’ yeast (P53341 whole entry, looked up): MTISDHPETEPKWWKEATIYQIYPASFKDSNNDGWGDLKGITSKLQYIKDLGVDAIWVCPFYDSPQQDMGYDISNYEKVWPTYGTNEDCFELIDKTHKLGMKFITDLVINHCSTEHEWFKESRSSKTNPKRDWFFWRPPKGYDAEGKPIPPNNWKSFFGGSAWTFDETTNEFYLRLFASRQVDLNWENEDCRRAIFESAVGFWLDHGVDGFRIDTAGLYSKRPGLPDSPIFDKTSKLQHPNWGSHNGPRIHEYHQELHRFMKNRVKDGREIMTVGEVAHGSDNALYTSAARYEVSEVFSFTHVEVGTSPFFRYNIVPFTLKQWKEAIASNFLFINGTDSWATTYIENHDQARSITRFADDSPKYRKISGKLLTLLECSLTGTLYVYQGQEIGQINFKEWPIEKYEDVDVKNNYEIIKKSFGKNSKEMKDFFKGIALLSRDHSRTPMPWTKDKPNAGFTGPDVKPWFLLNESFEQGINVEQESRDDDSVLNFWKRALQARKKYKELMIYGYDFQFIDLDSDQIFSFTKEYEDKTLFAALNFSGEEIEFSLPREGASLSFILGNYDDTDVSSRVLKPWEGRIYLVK

## C[C@H]1O[C@H](O[C@H]2[C@H](O)[C@@H](O)[C@@H](O[C@H]3[C@H](O)[C@@H](O)C(O)O[C@@H]3CO)O[C@@H]2CO)[C@H](O)[C@@H](O)[C@@H]1N[C@H]1C=C(CO)[C@@H](O)[C@H](O)[C@H]1O (stereo partly drawn) [ACB, acarbose, reference compound]
α-amylase; at 1.5 mg/mL, ref [29]
  α-amylase inhibition: 59.3%
α-glucosidase; at 0.44 mg/mL, ref [33]
  α-glucosidase inhibition: 62%
α-glucosidase; at 1.5 mg/mL, ref [29]
  α-glucosidase inhibition: 70.2%

## Cc1cc(C(C)(C)C)c(O)c(C(C)(C)C)c1 [BHT, butylated hydroxytoluene]
[1]
  TRC: 615.02 ± 38.87 ^c mg L-AAE/g
[2]
  FRAP: 0.41 µmol Fe^2+/g and 0.41 ± 0.03 ^c µmol Fe^2+/g and 0.41 ± 0.03 ^d µmol Fe^2+/g
[3]
  ABTS IC50: 0.040 ± 0.002 ^e mg/mL
[4]; at 0.2 mg/mL, ref [27]
  DPPH radicals scavenged: 47.32%
[4]
  DPPH radical inhibition: 73.9–90.7%
[4]; methanol extracts from unfermented straw, ref Đorđević et al. (2019) [12]
  DPPH IC50: 50 µg/mL
[4]; ref Yang et al. (2024) [20]
  DPPH IC50: 150 µg/mL
[5]; at 0.2 mg/mL, ref [27]
  ABTS radicals scavenged: 50.32%
[5]; ref Yang et al. (2024) [20]
  ABTS IC50: 140 µg/mL
[6]
  DPPH IC50: 0.038 ± 0.001 ^e mg/mL

## COc1cc(/C=C/C(=O)O)ccc1O [FA, ferulic acid]
[1]
  TRC: 2467.90 ± 91.26 ^a mg L-AAE/g
[1]; listed as ferulic acid
  TRC: 2467.90 mg L-AAE/g
[7]; 24 h
  Minimal Inhibitory Concentrations MICs: 62.5 µg/mL
[8]
  ABTS IC50: 0.0034 ± 0.0001 ^d mg/mL
[9]
  BChE IC50: 1.97 ± 0.08 ^c mg/mL
[4]
  DPPH radical inhibition: 84.3–92.3%
[10]
  DPPH IC50: 0.0068 ± 0.0001 ^c mg/mL
[11]
  Minimal Inhibitory Concentrations MICs: >500 µg/mL
α-amylase
  α-amylase IC50: 1840 µg/mL
  IC50: 9.5 mM
α-glucosidase; [26]
  α-glucosidase IC50: 950 µg/mL
α-glucosidase; ref Jeong et al. (2012) [29]
  IC50: 4.9 mM
α-glucosidase; ref Nile and Park (2014) [34]
  α-glucosidase IC50: 251.4 µg/mL
[12]
  AChE IC50: 4.10 ± 0.37 ^c mg/mL
[13]
  MIC: 500 µg/mL (≈ 2570 µM)
[14]
  MIC: ≥ 1000 µg/mL
[15]
  Minimal Inhibitory Concentrations MICs: >500 µg/mL
[16]; 24 h
  Minimal Inhibitory Concentrations MICs: >500 µg/mL
[17]; 24 h
  Minimal Inhibitory Concentrations MICs: >500 µg/mL
[18]
  α-glucosidase IC50: 1.49 ± 0.18 ^a mg/mL
[19]
  Minimal Inhibitory Concentrations MICs: 62.5 µg/mL
[20]
  FRAP: 2.02 ± 0.04 ^a µmol Fe^2+/g
[20]; listed as ferulic acid
  FRAP: 2.02 µmol Fe^2+/g
[21]; 24 h
  Minimal Inhibitory Concentrations MICs: >500 µg/mL
[22]
  α-amilase IC50: 3.35 ± 0.85 ^b mg/mL
[23]
  Minimal Inhibitory Concentrations MICs: 125 µg/mL

## O=C1O[C@H]([C@@H](O)CO)C(O)=C1O [L-AA, L-ascorbic acid]
[2]
  FRAP: 1.618 ± 0.004 ^e µmol Fe^2+/g and 1.618 ± 0.004 ^b µmol Fe^2+/g
[3]
  ABTS IC50: 0.0316 ± 0.0003 ^e mg/mL
[4]; ref Barnawi et al. (2023) [28]
  DPPH IC50: 2.51 µg/mL
[4]; ref Dewi et al. (2021) [15]
  DPPH IC50: 3.55 µg/mL
[4]; ref Elemosho et al. (2021) [26]
  DPPH IC50: 4630 µg/mL
[6]
  DPPH IC50: 0.0057 ± 0.0003 ^f mg/mL

## COc1cc(-c2cc(=O)c3c(O)cc(O)cc3o2)cc(OC)c1O [TRN, 5,7,4′-trihydroxy-3′,5′-dimethoxyflavone]
[1]
  TRC: 312.08 ± 12.44 ^d mg L-AAE/g
[7]
  MIC: 62.5 µg/mL (≈ 189 µM)
[8]
  ABTS IC50: 0.46 ± 0.01 ^a mg/mL
[9]
  IC50: 1.67 mM
[4]; [27]
  DPPH IC50: 90.39 µg/mL
[10]
  DPPH IC50: 1.71 ± 0.15 ^b mg/mL
[11]
  MIC: > 500 µg/mL
Tyrosinase from mushroom
  Tyr IC50: did not exhibit inhibitory activity within the tested concentration range
[12]
  IC50: 8.72 mM
[15]
  Minimal Inhibitory Concentrations MICs: 250 µg/mL
  MIC: 250 µg/mL (≈ 757 µM)
[16]
  MIC: > 500 µg/mL
[17]
  MIC: > 500 µg/mL
[19]
  Minimal Inhibitory Concentrations MICs: 31.25 µg/mL
  MIC: 31.2 µg/mL (≈ 94.6 µM)
[20]
  FRAP: 0.34 ± 0.01 ^d µmol Fe^2+/g
[21]
  MIC: > 500 µg/mL
[22]
  IC50: 5.84 mM
[23]
  Minimal Inhibitory Concentrations MICs: 31.25 µg/mL
  MIC: 31.2 µg/mL (≈ 94.6 µM)
tyrosinase; ref [38]
  tyrosinase IC50: 269.46 µg/mL

## COc1ccc2cc3[n+](cc2c1OC)CCc1cc2c(cc1-3)OCO2 [berberine, reference compound]
[24]; ref Sim et al. (2014) [39]
  AChE IC50: 1.5 µg/mL

## O=C(O)/C=C/c1ccc(O)cc1 [p-CA, p-coumaric acid]
[1]
  TRC: 1810.89 ± 116.14 ^b mg L-AAE/g
[1]; listed as p-Coumaric acid
  TRC: 1810.89 mg L-AAE/g
[7]
  MIC: 62.5 µg/mL (≈ 381 µM)
[8]
  ABTS IC50: 0.0256 ± 0.0012 ^c mg/mL
[25]
  MIC: 20 µg/mL (≈ 122 µM)
[4]
  DPPH radical inhibition: 10.3–26.9%
[10]
  DPPH IC50: 2.96 ± 0.16 ^a mg/mL
Gram-negative bacteria
  MIC: 10 to 80 µg/mL
[11]
  MIC: > 500 µg/mL
α-amylase
  α-amylase IC50: > 4920 µg/mL
  IC50: > 30 mM
α-glucosidase; [26]
  α-glucosidase IC50: > 4920 µg/mL
α-glucosidase; ref Jeong et al. (2012) [29]
  IC50: > 30 mM
α-glucosidase; ref Nile and Park (2014) [34]
  α-glucosidase IC50: 90.8 µg/mL
[12]
  IC50: 63.3 mM
[14]
  MIC: ≥ 1000 µg/mL
[15]
  Minimal Inhibitory Concentrations MICs: 250 µg/mL
  MIC: 250 µg/mL (≈ 1520 µM)
[16]
  MIC: > 500 µg/mL
[17]
  MIC: > 500 µg/mL
[19]
  Minimal Inhibitory Concentrations MICs: 31.25 µg/mL
  MIC: 31.2 µg/mL (≈ 190 µM)
[20]
  FRAP: 0.92 ± 0.02 ^c µmol Fe^2+/g
[21]
  MIC: > 500 µg/mL
[22]
  IC50: 167 mM
[23]
  Minimal Inhibitory Concentrations MICs: 31.25 µg/mL
  MIC: 31.2 µg/mL (≈ 190 µM)

## O=c1c(O)c(-c2ccc(O)c(O)c2)oc2cc(O)cc(O)c12 [quercetin]
[4]; [27]
  DPPH IC50: 42.98 µg/mL

## COc1cc(C(O)C(CO)Oc2c(OC)cc(-c3cc(=O)c4c(O)cc(O)cc4o3)cc2OC)ccc1O (stereo not drawn) [salcolin A, tricin 4′-O-(threo-β-guaiacylglyceryl)ether]
[4]; [27]
  DPPH IC50: 208.1 µg/mL

## COc1cc([C@H](O)[C@H](CO)Oc2c(OC)cc(-c3cc(=O)c4c(O)cc(O)cc4o3)cc2OC)ccc1O [salcolin B, tricin 4′-O-(erythro-β-guaiacylglyceryl)ether]
[4]; [27]
  DPPH IC50: 352.04 µg/mL

## O=C(O)CC1C(=O)Nc2cccc(O)c21 (stereo not drawn) [tasselin A, 4-hydroxy-1-oxindole-3-acetic acid]
tyrosinase; ref Wille and Berhow (2011) [37]
  IC50: 0.75 mM

## O=c1cc(-c2cc(O)c(O)c(O)c2)oc2cc(O)cc(O)c12 [tricetin]
[24]; ref Kuppusamy et al. (2017) [40]
  AChE IC50: 18.28 µg/mL
